Experimental data reported in article PMC8310135 (Viruses, 2021).
Structures can show the parent of a compound that is named as a salt. Where two headings read alike, the source gives them in different places.

What was measured:
rLUJV/ZsG = assay: microbe, parasite or virus in culture; format: cell-based, Lujo virus
in vitro = conditions: human; for CC50: CC50 (50% cell cytotoxicity concentration)
[1] = Mammarenavirus lujoense, Huh-7, 50 nM, read-out: Relative ZsG (%) Mean
[2] = Mammarenavirus lujoense, Huh-7, 500 nM, read-out: Relative ZsG (%) Mean
[3] = Mammarenavirus lujoense, Huh-7, 5000 nM, read-out: Relative ZsG (%) Mean
[4] = Mammarenavirus lujoense, Huh-7, read-out: Relative ZsG (%) Mean
[5] = Mammarenavirus lujoense, Huh-7, read-out: EC50 (concentration inhibiting ZsG expression by 50%)
[6] = read-out: EC50 (concentration inhibiting ZsG expression by 50%)

SMILES | activity at 0.05 µM (rLUJV/ZsG; [1]) [%] | activity at 0.5 µM (rLUJV/ZsG; [2]) [%] | activity at 5 µM (rLUJV/ZsG; [3]) [%] | viability at 0.05 µM (in vitro) [%] | viability at 0.5 µM (in vitro) [%] | viability at 5 µM (in vitro) [%] | activity at 0.05 µM (rLUJV/ZsG; [4]) [%] | activity at 0.5 µM (rLUJV/ZsG; [4]) [%] | activity at 5 µM (rLUJV/ZsG; [4]) [%] | EC50 (rLUJV/ZsG; [5]) [µM] | EC50 (rLUJV/ZsG; [6]) [µM] | CC50 (in vitro) [µM] | SI (selectivity index, CC50 divided by EC50) (rLUJV/ZsG)
OC(CNCC(O)C1CCc2cc(F)ccc2O1)C1CCc2cc(F)ccc2O1 (stereo not shown) [Nebivolol] | 76 | 58 | 18 | 110 | 108 | 76 |  |  |  |  |  |  | 
C#Cc1cccc(Nc2ncnc3cc(OCCOC)c(OCCOC)cc23)c1 [Erlotinib] | 82 | 66 | 65 | 127 | 126 | 110 |  |  |  |  |  |  | 
CC(C)(C)c1nc(-c2cccc(NS(=O)(=O)c3c(F)cccc3F)c2F)c(-c2ccnc(N)n2)s1 [Dabrafenib] | 87 | 79 | 22 | 119 | 117 | 68 |  |  |  |  |  |  | 
CNCC[C@H](Oc1cccc2ccccc12)c1cccs1 [Duloxetine HCL] |  |  |  | 104 | 109 | 76 | 103 | 74 | 4 |  |  |  | 
CN(C)CCCN1c2ccccc2CCc2ccc(Cl)cc21 [Clomipramine HCL] | 129 | 103 | 12 | 97 | 97 | 98 |  |  |  |  |  |  | 
O=C1C=CN([C@@H]2O[C@H](CO)[C@@H](O)[C@H]2O)C(=O)C1 [3-deazauridine] | 108 | 105 | 111 | 103 | 96 | 99 |  |  |  |  |  |  | 
CC(C)/N=c1\cc2n(-c3ccc(Cl)cc3)c3ccccc3nc-2cc1Nc1ccc(Cl)cc1 [Clofazimine] | 88 | 75 | 52 | 120 | 125 | 102 |  |  |  |  |  |  | 
C[C@@]1(O)[C@H](O)[C@@H](CO)O[C@H]1n1ccc(N)nc1=O [2ʹ-C-methylcytidine] | 124 | 144 | 103 | 102 | 104 | 99 |  |  |  |  |  |  | 
[N-]=[N+]=Nc1cn([C@@H]2O[C@H](CO)[C@@H](O)[C@H]2O)c(=O)[nH]c1=O [5-azidouridine] | 121 | 119 | 113 | 104 | 100 | 104 |  |  |  |  |  |  | 
O=c1cnn([C@@H]2O[C@H](CO)[C@@H](O)[C@H]2O)c(=O)[nH]1 [6-azauridine] | 95 | 87 | 78 | 98 | 103 | 97 |  |  |  |  |  |  | 
N#Cc1cn([C@@H]2O[C@H](CO)[C@@H](O)[C@H]2O)c2ncnc(N)c12 [Toyocamycin] | 69 | 12 | 7 | 97 | 64 | 23 |  |  |  |  |  |  | 
CN1[C@@H]2CC[C@H]1C[C@@H](OC(c1ccccc1)c1ccccc1)C2 [Benztropine mesylate] | 110 | 90 | 36 | 126 | 130 | 108 |  |  |  | 5.14 ± 1.52 | 5.14 ± 1.52 | > 25 | 
CC(C)C(=O)OC[C@@]1(N=[N+]=[N-])O[C@@H](n2ccc(N)nc2=O)[C@H](OC(=O)C(C)C)[C@@H]1OC(=O)C(C)C [Balapiravir (R1626), Balapiravir] | 139 | 81 | 122 | 104 | 104 | 99 |  |  |  |  |  |  | 
Nc1ncn([C@@H]2O[C@H](CO)[C@@H](O)[C@H]2O)c(=O)n1 [5-azacytidine] | 90 | 112 | 104 | 96 | 102 | 102 |  |  |  |  |  |  | 
Nc1ncnc2c1nnn2[C@@H]1O[C@H](CO)[C@@H](O)[C@H]1O [8-azaadenosine] | 118 | 121 | 6 | 98 | 103 | 47 |  |  |  |  |  |  | 
Cc1ccc(NC(=O)c2ccc(CN3CCN(C)CC3)cc2)cc1Nc1nccc(-c2cccnc2)n1 [Gleevec] | 95 | 113 | 56 | 101 | 96 | 96 |  |  |  |  |  |  | 
CN[C@H]1CC[C@@H](c2ccc(Cl)c(Cl)c2)c2ccccc21 [Sertraline] | 80 | 69 | 35 | 122 | 128 | 107 |  |  |  |  |  |  | 
Nc1nc(Cl)nc2c1ncn2[C@@H]1O[C@H](CO)[C@@H](O)[C@H]1O [2-chloroadenosine] | 124 | 133 | 99 | 98 | 105 | 103 |  |  |  |  |  |  | 
Cc1c(F)cc(C(=O)NC2CC2)cc1-c1ccc(C(=O)NCC(C)(C)C)cn1 [Losmapimod] | 60 | 70 | 63 | 113 | 115 | 114 |  |  |  |  |  |  | 
O=c1[nH]c(=O)n([C@@H]2O[C@H](CO)[C@@H](O)[C@H]2O)cc1Cl [5-chlorouridine] | 122 | 142 | 103 | 100 | 103 | 99 |  |  |  |  |  |  | 
Nc1ncnc2c([C@@H]3N[C@H](CO)[C@@H](O)[C@H]3O)c[nH]c12 [BCX-4430] | 103 | 132 | 99 | 99 | 97 | 101 |  |  |  |  |  |  | 
CN(C)C(=O)C(CCN1CCC(O)(c2ccc(Cl)cc2)CC1)(c1ccccc1)c1ccccc1 [Loperamide HCL] | 104 | 81 | 1 | 99 | 104 | 85 |  |  |  | 3.67 ± 0.99 | 3.67 ± 0.986 | 12.3 ± 3.57 | 3.3
O=c1cnn([C@@H]2O[C@H](CO)[C@@H](O)[C@H]2O)c(=S)[nH]1 [6-aza-2-thiouridine] | 134 | 139 | 112 | 104 | 96 | 103 |  |  |  |  |  |  | 
COc1ccc(-c2ccc3c(N4CCOC[C@@H]4C)nc(N4CCOC[C@@H]4C)nc3n2)cc1CO [AZD8055] | 48 | 7 | 3 | 86 | 52 | 45 |  |  |  |  |  |  | 
[N-]=[N+]=Nc1nc2c(N)ncnc2n1[C@@H]1O[C@H](CO)[C@@H](O)[C@H]1O [8-azidoadenosine] | 90 | 72 | 6 | 104 | 87 | 32 |  |  |  |  |  |  | 
